Data from patent EP3075724A1, “SOLID FORM OF AGOMELATINE” (F.I.S.- Fabbrica Italiana Sintetici S.p.A., priority 2015, dated 2016).

What was measured:
Kinetic dissolution test = format: physicochemical; conditions: 200 mg tablet, 100 mL saline solution, paddle 100 rpm, 37 °C
Experimental: The tests were performed in duplicate on 13 mm tablets containing 200 mg agomelatine (form I) or agomelatine pyruvic acid cocrystal, which were prepared on a Digital Hydraulic Press at a force of about 8 metric tons. The tablets were placed in 100 mL of saline solution in a paddle apparatus at 100 rpm and 37 °C ± 0.5 °C. A 3 mL sample was withdrawn from each vessel at fixed time points, filtered through a 0.45 µm filter (discarding the first 1 mL), analyzed by HPLC, and compared to a previously prepared reference standard calibration curve. Immediately after each sampling, the solutions in the vessels were replenished with 3 mL of saline.

[1] = Stability tests (chemical stability by HPLC); format: physicochemical
Experimental: Agomelatine pyruvic acid cocrystal according to Example 1 was subjected to stability tests for seven days at 25 °C, 60 % RH and 40 °C, 75 % RH, respectively.

[2] = cited from earlier work
[3] = 5 min, Ø (average of #1 and #2)
[4] = 15 min, Ø (average of #1 and #2)
[5] = 30 min, Ø (average of #1 and #2)
[6] = 45 min, Ø (average of #1 and #2)
[7] = 60 min, Ø (average of #1 and #2)
[8] = 90 min, Ø (average of #1 and #2)
[9] = 120 min, Ø (average of #1 and #2)
[10] = 180 min, Ø (average of #1 and #2)
[11] = 240 min, Ø (average of #1 and #2)
[12] = 300 min, Ø (average of #1 and #2)
[13] = 360 min, Ø (average of #1 and #2)
[14] = 420 min, Ø (average of #1 and #2)

SMILES | kinetic dissolution in aqueous medium (Kinetic dissolution test; 5 min, #1) | kinetic dissolution in aqueous medium (Kinetic dissolution test; 5 min, #2) | kinetic dissolution in aqueous medium (Kinetic dissolution test; [3]) | kinetic dissolution in aqueous medium (Kinetic dissolution test; 15 min, #1) | kinetic dissolution in aqueous medium (Kinetic dissolution test; 15 min, #2) | kinetic dissolution in aqueous medium (Kinetic dissolution test; [4]) | kinetic dissolution in aqueous medium (Kinetic dissolution test; 30 min, #1) | kinetic dissolution in aqueous medium (Kinetic dissolution test; 30 min, #2) | kinetic dissolution in aqueous medium (Kinetic dissolution test; [5]) | kinetic dissolution in aqueous medium (Kinetic dissolution test; 45 min, #1) | kinetic dissolution in aqueous medium (Kinetic dissolution test; 45 min, #2) | kinetic dissolution in aqueous medium (Kinetic dissolution test; [6]) | kinetic dissolution in aqueous medium (Kinetic dissolution test; 60 min, #1) | kinetic dissolution in aqueous medium (Kinetic dissolution test; 60 min, #2) | kinetic dissolution in aqueous medium (Kinetic dissolution test; [7]) | kinetic dissolution in aqueous medium (Kinetic dissolution test; 90 min, #1) | kinetic dissolution in aqueous medium (Kinetic dissolution test; 90 min, #2) | kinetic dissolution in aqueous medium (Kinetic dissolution test; [8]) | kinetic dissolution in aqueous medium (Kinetic dissolution test; 120 min, #1) | kinetic dissolution in aqueous medium (Kinetic dissolution test; 120 min, #2) | other results
COc1ccc2cccc(CCNC(C)=O)c2c1 [Form I, N-[2-(7-methoxynaphthalen-1-yl)ethyl]acetamide] | 3.39 µg/mL | 4.38 µg/mL | 3.89 µg/mL | 8.20 µg/mL | 9.32 µg/mL | 8.76 µg/mL | 14.80 µg/mL | 15.58 µg/mL | 15.19 µg/mL | 22.55 µg/mL | 23.81 µg/mL | 23.18 µg/mL | 30.05 µg/mL | 31.53 µg/mL | 30.79 µg/mL | 47.49 µg/mL | 50.84 µg/mL | 49.17 µg/mL | 55.73 µg/mL | 58.72 µg/mL | kinetic dissolution in aqueous medium (Kinetic dissolution test; [9]): 57.23 µg/mL; kinetic dissolution in aqueous medium (Kinetic dissolution test; 180 min, #1): 75.07 µg/mL; kinetic dissolution in aqueous medium (Kinetic dissolution test; 180 min, #2): 74.85 µg/mL; kinetic dissolution in aqueous medium (Kinetic dissolution test; [10]): 74.96 µg/mL; kinetic dissolution in aqueous medium (Kinetic dissolution test; 240 min, #1): 91.32 µg/mL; kinetic dissolution in aqueous medium (Kinetic dissolution test; 240 min, #2): 86.85 µg/mL; kinetic dissolution in aqueous medium (Kinetic dissolution test; [11]): 89.09 µg/mL; kinetic dissolution in aqueous medium (Kinetic dissolution test; 300 min, #1): 102.54 µg/mL; kinetic dissolution in aqueous medium (Kinetic dissolution test; 300 min, #2): 96.76 µg/mL; kinetic dissolution in aqueous medium (Kinetic dissolution test; [12]): 99.65 µg/mL; kinetic dissolution in aqueous medium (Kinetic dissolution test; 360 min, #1): 112.42 µg/mL; kinetic dissolution in aqueous medium (Kinetic dissolution test; 360 min, #2): 106.36 µg/mL; kinetic dissolution in aqueous medium (Kinetic dissolution test; [13]): 109.39 µg/mL; kinetic dissolution in aqueous medium (Kinetic dissolution test; 420 min, #1): 121.98 µg/mL; kinetic dissolution in aqueous medium (Kinetic dissolution test; 420 min, #2): 114.14 µg/mL; kinetic dissolution in aqueous medium (Kinetic dissolution test; [14]): 118.06 µg/mL
COc1ccc2cccc(CCNC(C)=O)c2c1 [Pyruvic Acid Cocrystal] | 5.21 µg/mL | 5.45 µg/mL | 5.33 µg/mL | 12.55 µg/mL | 13.42 µg/mL | 12.99 µg/mL | 22.75 µg/mL | 24.10 µg/mL | 23.43 µg/mL | 33.41 µg/mL | 37.03 µg/mL | 35.22 µg/mL | 42.71 µg/mL | 50.65 µg/mL | 46.68 µg/mL | 70.03 µg/mL | 77.31 µg/mL | 73.67 µg/mL | 84.65 µg/mL | 90.24 µg/mL | kinetic dissolution in aqueous medium (Kinetic dissolution test; [9]): 87.45 µg/mL; kinetic dissolution in aqueous medium (Kinetic dissolution test; 180 min, #1): 114.37 µg/mL; kinetic dissolution in aqueous medium (Kinetic dissolution test; 180 min, #2): 114.58 µg/mL; kinetic dissolution in aqueous medium (Kinetic dissolution test; [10]): 114.48 µg/mL; kinetic dissolution in aqueous medium (Kinetic dissolution test; 240 min, #1): 131.99 µg/mL; kinetic dissolution in aqueous medium (Kinetic dissolution test; 240 min, #2): 131.80 µg/mL; kinetic dissolution in aqueous medium (Kinetic dissolution test; [11]): 131.9 µg/mL; kinetic dissolution in aqueous medium (Kinetic dissolution test; 300 min, #1): 144.64 µg/mL; kinetic dissolution in aqueous medium (Kinetic dissolution test; 300 min, #2): 144.74 µg/mL; kinetic dissolution in aqueous medium (Kinetic dissolution test; [12]): 144.69 µg/mL; kinetic dissolution in aqueous medium (Kinetic dissolution test; 360 min, #1): 155.52 µg/mL; kinetic dissolution in aqueous medium (Kinetic dissolution test; 360 min, #2): 156.49 µg/mL; kinetic dissolution in aqueous medium (Kinetic dissolution test; [13]): 156.01 µg/mL; kinetic dissolution in aqueous medium (Kinetic dissolution test; 420 min, #1): 165.30 µg/mL; kinetic dissolution in aqueous medium (Kinetic dissolution test; 420 min, #2): 163.14 µg/mL; kinetic dissolution in aqueous medium (Kinetic dissolution test; [14]): 164.22 µg/mL; chemical stability as determined by HPLC ([1]; seven days at 25 °C, 60 % RH): excellent chemical stability; chemical stability as determined by HPLC ([1]; seven days at 40 °C, 75 % RH): excellent chemical stability
COc1ccc2cccc(CCNC(C)=O)c2c1 [agomelatine, N-[2-(7-methoxynaphthalen-1-yl)ethyl]acetamide] | – | – | – | – | – | – | – | – | – | – | – | – | – | – | – | – | – | – | – | – | solubility in various organic solvents ([2]; e.g. ethanol, methanol, methylene chloride, freely soluble): > 100 mg/mL; solubility in purified water ([2]; purified water, practically insoluble): < 0.1 mg/mL
